Laboratory results: ChEMBL document CHEMBL1909046, “DrugMatrix in vitro pharmacology data”

Columns and labels:
[1] = target: T1, Alpha-1D adrenergic receptor (Homo sapiens, UniProt P25100); type: cell membranes, HEK293, Membrane; further: in other assays of this panel Not Active means under 50% inhibition at 10 µM
T1 sequence (P25100 whole entry): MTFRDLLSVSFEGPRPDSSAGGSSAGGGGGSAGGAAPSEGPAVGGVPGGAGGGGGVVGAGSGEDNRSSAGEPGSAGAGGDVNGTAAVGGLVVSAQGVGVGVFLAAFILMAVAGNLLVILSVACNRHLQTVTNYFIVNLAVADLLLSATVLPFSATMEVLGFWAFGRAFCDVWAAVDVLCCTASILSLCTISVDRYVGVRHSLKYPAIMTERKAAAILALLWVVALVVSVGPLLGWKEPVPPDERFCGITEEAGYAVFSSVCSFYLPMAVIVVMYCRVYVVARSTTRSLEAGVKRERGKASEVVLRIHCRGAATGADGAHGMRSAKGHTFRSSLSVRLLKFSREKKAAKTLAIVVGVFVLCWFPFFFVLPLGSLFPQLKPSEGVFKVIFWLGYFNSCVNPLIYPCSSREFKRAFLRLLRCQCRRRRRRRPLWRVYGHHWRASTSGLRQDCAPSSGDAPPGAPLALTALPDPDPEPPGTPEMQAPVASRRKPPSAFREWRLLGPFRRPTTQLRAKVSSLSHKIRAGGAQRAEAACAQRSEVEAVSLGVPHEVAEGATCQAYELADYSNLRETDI

[2] = DRUGMATRIX: Leukotriene, BLT (LTB4) radioligand binding (ligand: [3H]LTB4); type: cell membranes, Membrane; settings: u-937; Not Active = under 50% inhibition at 10 µM
[3] = target: Kappa-type opioid receptor (Homo sapiens, UniProt P41145); experiment: DRUGMATRIX: Opiate kappa (OP2, KOP) radioligand binding (ligand: [3H] Diprenorphine); type: cell membranes, HEK293, Membrane; settings: Not Active = under 50% inhibition at 10 µM
Kappa-type opioid receptor, sequence (P41145 whole entry): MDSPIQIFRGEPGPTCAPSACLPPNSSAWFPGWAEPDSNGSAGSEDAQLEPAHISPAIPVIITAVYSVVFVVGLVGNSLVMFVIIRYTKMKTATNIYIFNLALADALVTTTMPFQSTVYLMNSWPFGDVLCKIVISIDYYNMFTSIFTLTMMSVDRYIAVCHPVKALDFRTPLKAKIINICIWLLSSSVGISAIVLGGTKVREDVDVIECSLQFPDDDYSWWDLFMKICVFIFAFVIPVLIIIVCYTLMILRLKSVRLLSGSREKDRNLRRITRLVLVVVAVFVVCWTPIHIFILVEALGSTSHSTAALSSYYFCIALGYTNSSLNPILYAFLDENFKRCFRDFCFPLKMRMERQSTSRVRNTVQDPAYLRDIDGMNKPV

[4] = target: T2, Muscarinic acetylcholine receptor M2 (Homo sapiens, UniProt P08172); type: cell membranes, CHO-K1, Membrane; further: in other assays of this panel Not Active means under 50% inhibition at 10 µM
T2 sequence (P08172 whole entry): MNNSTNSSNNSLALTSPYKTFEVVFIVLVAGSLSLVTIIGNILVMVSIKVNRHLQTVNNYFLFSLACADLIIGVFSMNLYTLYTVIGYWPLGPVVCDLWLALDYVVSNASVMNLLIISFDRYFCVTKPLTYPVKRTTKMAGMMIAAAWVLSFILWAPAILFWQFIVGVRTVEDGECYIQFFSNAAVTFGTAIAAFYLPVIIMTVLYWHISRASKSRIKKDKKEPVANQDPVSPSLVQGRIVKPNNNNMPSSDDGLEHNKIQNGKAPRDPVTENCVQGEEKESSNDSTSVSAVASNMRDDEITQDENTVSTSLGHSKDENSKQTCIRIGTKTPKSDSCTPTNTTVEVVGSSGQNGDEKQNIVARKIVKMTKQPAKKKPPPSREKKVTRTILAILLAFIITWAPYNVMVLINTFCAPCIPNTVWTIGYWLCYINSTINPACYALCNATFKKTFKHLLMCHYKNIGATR

[5] = target: T3, Cholecystokinin receptor type A (Homo sapiens, UniProt P32238); type: cell membranes, Membrane; settings: 1321-n1; further: in other assays of this panel Not Active means under 50% inhibition at 10 µM
T3 sequence (P32238 whole entry): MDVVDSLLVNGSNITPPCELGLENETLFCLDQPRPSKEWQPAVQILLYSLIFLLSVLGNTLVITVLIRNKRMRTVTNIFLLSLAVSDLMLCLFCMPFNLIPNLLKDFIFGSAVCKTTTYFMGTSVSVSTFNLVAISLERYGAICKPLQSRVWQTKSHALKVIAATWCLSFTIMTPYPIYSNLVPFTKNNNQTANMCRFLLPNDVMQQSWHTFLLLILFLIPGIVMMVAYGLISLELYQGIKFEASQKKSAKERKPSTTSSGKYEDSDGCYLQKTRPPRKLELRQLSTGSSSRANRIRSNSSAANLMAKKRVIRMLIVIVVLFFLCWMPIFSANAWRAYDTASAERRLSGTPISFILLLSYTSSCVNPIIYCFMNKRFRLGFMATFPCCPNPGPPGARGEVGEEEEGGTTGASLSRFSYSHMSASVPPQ

B2 bradykinin receptor = target: T4, B2 bradykinin receptor (Homo sapiens, UniProt P30411); type: cell membranes, Membrane; settings: chem-1; further: in other assays of this panel Not Active means under 50% inhibition at 10 µM
T4 sequence (P30411 whole entry): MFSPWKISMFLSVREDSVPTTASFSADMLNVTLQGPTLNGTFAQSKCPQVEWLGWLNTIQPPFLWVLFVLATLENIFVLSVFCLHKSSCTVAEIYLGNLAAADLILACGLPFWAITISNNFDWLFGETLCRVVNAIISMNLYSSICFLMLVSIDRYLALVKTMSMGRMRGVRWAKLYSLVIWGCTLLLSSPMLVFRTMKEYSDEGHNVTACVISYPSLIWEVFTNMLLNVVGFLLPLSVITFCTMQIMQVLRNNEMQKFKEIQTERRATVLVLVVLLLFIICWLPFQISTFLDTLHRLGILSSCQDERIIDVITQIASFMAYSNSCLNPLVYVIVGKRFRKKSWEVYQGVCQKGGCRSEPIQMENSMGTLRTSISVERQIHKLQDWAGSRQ

Mu-type opioid receptor = Mu-type opioid receptor (Homo sapiens, UniProt P35372); experiment: DRUGMATRIX: Opiate mu (OP3, MOP) radioligand binding (ligand: [3H] Diprenorphine); type: cell membranes, CHO-K1, Membrane; settings: Not Active = under 50% inhibition at 10 µM
Mu-type opioid receptor, sequence (P35372 whole entry): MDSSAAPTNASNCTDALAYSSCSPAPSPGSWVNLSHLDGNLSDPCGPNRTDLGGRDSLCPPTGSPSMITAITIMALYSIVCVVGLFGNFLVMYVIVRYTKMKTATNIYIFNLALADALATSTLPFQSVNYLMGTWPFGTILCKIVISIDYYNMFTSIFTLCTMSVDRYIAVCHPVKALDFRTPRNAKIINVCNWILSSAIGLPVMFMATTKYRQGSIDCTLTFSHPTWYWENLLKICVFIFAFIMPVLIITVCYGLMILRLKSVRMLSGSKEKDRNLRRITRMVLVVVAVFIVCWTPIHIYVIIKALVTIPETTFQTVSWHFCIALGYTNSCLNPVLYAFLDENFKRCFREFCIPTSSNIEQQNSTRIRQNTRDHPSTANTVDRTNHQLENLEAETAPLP

Compound | IC50 ([1]; read-out: IC50) [µM] | Ki ([1]; read-out: Ki) [µM] | IC50 [2] | Ki [2] | IC50 ([3]; hek293) | IC50 ([4]; cho-k1) | IC50 [5] | IC50 (B2 bradykinin receptor) | Ki (Mu-type opioid receptor) [µM] | IC50 (Mu-type opioid receptor; read-out: IC50) [µM] | IC50 ([1]; hek293) | IC50 (Mu-type opioid receptor; cho-k1) | Ki [3] [µM] | IC50 ([3]; read-out: IC50) [µM] | IC50 ([4]; read-out: IC50) [µM] | Ki ([4]; read-out: Ki) [µM] | Ki ([1]; hek293) | Ki ([4]; cho-k1) | Ki [5] | Ki (B2 bradykinin receptor)
Cc1c(C)c2c(c(C)c1O)CCC(C)(CN1CCN(c3cc(N4CCCC4)nc(N4CCCC4)n3)CC1)O2 (centres undefined) | 26.7 | 13.1 | Not Active | Not Active | Not Active | Not Active | Not Active | Not Active | 4.36 | 10.7 | – | – | – | – | – | – | – | – | – | –
COc1ccc(CCN(C)CCCC(C#N)(c2ccc(OC)c(OC)c2)C(C)C)cc1OC (centres undefined) | – | – | Not Active | Not Active | Not Active | Not Active | Not Active | Not Active | – | – | Not Active | Not Active | – | – | – | – | – | – | – | –
CC(C)Cc1ccc([C@@H](C)C(=O)O)cc1 [(R)-IBUPROPHEN] | – | – | Not Active | Not Active | Not Active | Not Active | Not Active | Not Active | – | – | Not Active | Not Active | – | – | – | – | – | – | – | –
CN(C)CCOC(c1ccccc1)c1ccccc1 [DIPHENHYDRAMINE] | – | – | – | – | Not Active | – | Not Active | Not Active | – | – | Not Active | Not Active | – | – | – | – | – | – | – | –
Clc1ccc(COC(Cn2ccnc2)c2ccc(Cl)cc2Cl)cc1 (centres undefined) [ECONAZOLE] | 8.9 | 4.37 | – | – | – | – | Not Active | Not Active | – | – | – | – | 3.45 | 8.62 | – | – | – | – | – | –
CCN(CC)CCOc1ccc(/C(=C(/Cl)c2ccccc2)c2ccccc2)cc1 [ENCLOMIPHENE] | – | – | – | – | Not Active | – | Not Active | Not Active | – | – | Not Active | Not Active | – | – | – | – | – | – | – | –
Fc1ccc(C(c2ccc(F)cc2)N2CCN(C/C=C/c3ccccc3)CC2)cc1 [FLUNARIZINE] | 1.08 | 0.533 | – | – | Not Active | Not Active | Not Active | Not Active | 2.12 | 5.24 | – | – | – | – | – | – | – | – | – | –
CNCCC(Oc1ccc(C(F)(F)F)cc1)c1ccccc1 (centres undefined) [FLUOXETINE] | – | – | – | – | Not Active | Not Active | Not Active | Not Active | – | – | Not Active | Not Active | – | – | – | – | – | – | – | –
Cc1ccc(NC(=O)c2ccc(CN3CCN(C)CC3)cc2)cc1Nc1nccc(-c2cccnc2)n1 [IMATINIB] | – | – | – | – | Not Active | Not Active | Not Active | Not Active | – | – | Not Active | Not Active | – | – | – | – | – | – | – | –
CC(C)Oc1ccc2c(=O)c(-c3ccccc3)coc2c1 [IPRIFLAVONE] | – | – | Not Active | Not Active | Not Active | Not Active | Not Active | Not Active | – | – | Not Active | Not Active | – | – | – | – | – | – | – | –
CC[C@@H](C(=O)[C@@H](C)[C@@H](O)[C@H](C)[C@@H]1O[C@@H]([C@@H](CC)C(=O)O)CC[C@@H]1C)[C@H]1O[C@]2(C=C[C@@H](O)[C@]3(CC[C@@](C)([C@H]4CC[C@](O)(CC)[C@H](C)O4)O3)O2)[C@H](C)C[C@@H]1C [SALINOMYCIN] | – | – | Not Active | Not Active | – | Not Active | Not Active | Not Active | – | – | Not Active | – | – | – | – | – | – | – | – | –
CN[C@H]1CC[C@@H](c2ccc(Cl)c(Cl)c2)c2ccccc21 [SERTRALINE] | – | – | – | – | Not Active | – | Not Active | Not Active | – | – | Not Active | Not Active | – | – | 2.77 | 0.984 | – | – | – | –
O=C(Nc1ccc(Br)cc1)c1cc(Br)cc(Br)c1O [TRIBROMSALAN] | – | – | Not Active | Not Active | – | Not Active | Not Active | Not Active | – | – | Not Active | – | – | – | – | – | – | – | – | –
MANGANESE CHLORIDE ANHYDROUS | – | – | Not Active | Not Active | – | Not Active | Not Active | Not Active | – | – | Not Active | – | – | – | – | – | Not Active | Not Active | Not Active | Not Active
SODIUM ORTHOVANAD | – | – | Not Active | Not Active | – | Not Active | Not Active | Not Active | – | – | Not Active | – | – | – | – | – | Not Active | Not Active | Not Active | Not Active
